Source: patent publication US20220235064A1 (WELLMARKER BIO CO., LTD., priority 2019, published 2022)

Assays:
[1] = tested on: cancer cell line HT29, in which mutated RON (Δ160) is expressed; assay: Cell-killing efficacy in RON-mutated cancer cell line HT29 (trypan blue); format: cell-based; conditions: for cytotoxicity at 1 µM / cytotoxicity at 5 µM: Homo sapiens, HT-29, 48 hours, trypan blue, n=2, read-out: Cell death (%) Cancer cell line HT29; for cell-killing effect (in words): HT29, as compared with the positive control
Experimental: (§1) Experimental Example 4: Measurement of Cell-Killing Efficacy of Example Compounds in RON-Mutated Cancer Cell Lines
(§2) Each of two colorectal cancer cell lines, that is, the cancer cell line HT29 (30038, KCLB, RPMI+10% FBS), in which mutated RON (Δ160) is expressed, and the cancer cell line SW620 (CCL-227, ATCC, RPMI+10% FBS), in which mutated RON (Δ155) is expressed, was dispensed into each 60 mm^2 dish at 1×10^5 cells. After 24 hours, the dish was treated with each of the example compounds at a concentration of 1 μM or 5 μM while performing medium exchange, and then reaction was allowed to proceed for 48 hours. After 48 hours, centrifugation was performed for 4 minutes at 1,500 rpm to collect cells and cell fluid. Thereafter, living cells and dead cells were quantified (n=2) using a trypan blue solution (15250-061, Gibco), and statistical analysis was performed using Excel-T-test. Here, as a negative control, only a solvent (0.10% DMSO) was used; and as a positive control, N-(4-(2-amino-3-chloropyridin-4-yloxy)-3-fluorophenyl)-4-ethoxy-1-(4-fluorophenyl)-2-oxo-1,2-dihydropyridine-3-carboxamide, which is the compound of Example 1 in WO 2008/058229 A1, was used.

RON tyrosine kinase = target: T1, RON tyrosine kinase (Homo sapiens, UniProt Q04912); assay: Enzyme inhibitory activity against RON tyrosine kinase (TR-FRET); format: biochemical; conditions: RON (Carna Bioscience)
T1 construct: purchased Carna Bioscience
T1 sequence (Q04912 25-1400): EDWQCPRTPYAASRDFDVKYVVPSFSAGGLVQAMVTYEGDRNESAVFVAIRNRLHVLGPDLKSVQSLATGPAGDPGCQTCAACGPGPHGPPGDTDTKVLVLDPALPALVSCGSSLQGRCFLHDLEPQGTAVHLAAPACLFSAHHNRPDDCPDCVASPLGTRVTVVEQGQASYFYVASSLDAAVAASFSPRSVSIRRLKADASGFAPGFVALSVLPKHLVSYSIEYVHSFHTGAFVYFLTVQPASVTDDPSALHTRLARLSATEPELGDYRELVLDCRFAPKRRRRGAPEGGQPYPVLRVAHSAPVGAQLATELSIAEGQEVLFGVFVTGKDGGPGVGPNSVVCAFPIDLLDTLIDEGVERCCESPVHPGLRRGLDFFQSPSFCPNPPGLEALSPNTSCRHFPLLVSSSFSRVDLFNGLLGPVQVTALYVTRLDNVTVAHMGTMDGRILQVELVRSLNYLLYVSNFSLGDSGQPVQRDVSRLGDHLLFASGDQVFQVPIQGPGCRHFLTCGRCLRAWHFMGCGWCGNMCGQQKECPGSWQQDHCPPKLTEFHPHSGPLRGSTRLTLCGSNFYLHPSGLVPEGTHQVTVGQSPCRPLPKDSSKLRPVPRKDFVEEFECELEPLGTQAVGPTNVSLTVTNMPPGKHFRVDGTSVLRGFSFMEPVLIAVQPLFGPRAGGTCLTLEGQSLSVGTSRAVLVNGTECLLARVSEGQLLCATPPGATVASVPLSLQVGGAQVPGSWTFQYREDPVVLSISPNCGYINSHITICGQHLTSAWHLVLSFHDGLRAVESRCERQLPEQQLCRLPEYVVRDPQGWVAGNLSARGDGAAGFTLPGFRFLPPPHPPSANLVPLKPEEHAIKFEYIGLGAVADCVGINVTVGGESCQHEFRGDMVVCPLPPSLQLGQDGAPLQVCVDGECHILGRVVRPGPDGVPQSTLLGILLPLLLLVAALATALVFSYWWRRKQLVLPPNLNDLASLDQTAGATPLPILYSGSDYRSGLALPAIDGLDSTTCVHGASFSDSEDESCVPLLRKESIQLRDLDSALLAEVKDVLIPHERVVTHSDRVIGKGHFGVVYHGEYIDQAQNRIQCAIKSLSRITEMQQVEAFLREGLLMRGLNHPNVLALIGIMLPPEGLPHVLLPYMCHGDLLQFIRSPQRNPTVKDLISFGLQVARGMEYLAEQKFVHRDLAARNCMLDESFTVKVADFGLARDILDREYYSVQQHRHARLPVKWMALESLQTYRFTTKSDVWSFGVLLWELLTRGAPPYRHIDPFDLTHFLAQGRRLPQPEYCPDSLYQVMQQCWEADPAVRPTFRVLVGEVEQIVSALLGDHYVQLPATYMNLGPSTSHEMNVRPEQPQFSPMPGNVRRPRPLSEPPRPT
Summary of the method: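 Recombinant RON was preincubated with compound for 15 min at RT in 50 mM HEPES pH 7.5, 10 mM MgCl2, 1 mM EGTA, 2 mM DTT, 0.01% Tween-20. Enzyme (0.4 nM), ATP (60 μM) and tyrosine peptide (400 nM) were prepared at 2×, 4× and 4× final. After 60 min at RT, EDTA/Eu-anti-phosphotyrosine stop; IC50 from 665 nm TR-FRET emission.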

[2] = tested on: cancer cell line KM12C, in which RON is activated; assay: Cell-killing efficacy in RON-activated cancer cell line (trypan blue); format: cell-based; conditions: for cytotoxicity at 1 µM / cytotoxicity at 5 µM: Homo sapiens, 48 hours, trypan blue, n=2, read-out: Cell death (%) Cancer cell line KM12C; for cell-killing effect (in words): as compared with the positive control
Summary of the method: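 KM12C cells seeded 1×10^5 per 60 mm^2 dish in MEM + 10% FBS, then exposed 24 h later to compound at 1 μM or 5 μM for 48 h.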

[3] = tested on: cancer cell line SW620, in which mutated RON (Δ155) is expressed; assay: Cell-killing efficacy in RON-mutated cancer cell line SW620 (trypan blue); format: cell-based; conditions: for cytotoxicity at 1 µM / cytotoxicity at 5 µM: Homo sapiens, SW-620, 48 hours, trypan blue, n=2, read-out: Cell death (%) Cancer cell line SW620; for cell-killing effect (in words): SW620, as compared with the positive control
Experimental: as §1, §2

[4] = tested on: cancer cell line KM12C, in which RON is activated; assay: Cell growth inhibitory ability in RON-activated cancer cell line (MTS); format: cell-based; conditions: Homo sapiens, 48 hours, absorbance 490 nm
Summary of the method: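 KM12C cells (RON-activated, MEM with FBS) exposed to compound […] for 48 h. MTS added 24 h after treatment ended, incubated 4 h at 37° C, absorbance read at 490 nm. IC50 derived from absorbance.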

| IC50 (RON tyrosine kinase) [nM] | IC50 [4] [nM] | SMILES | cytotoxicity at 1 µM [1] [%] | cytotoxicity at 5 µM [1] [%] | cytotoxicity at 1 µM [2] [%] | cytotoxicity at 5 µM [2] [%] | cytotoxicity at 1 µM [3] [%] | cytotoxicity at 5 µM [3] [%] | cell-killing effect (in words) [1] | cell-killing effect (in words) [2] | cell-killing effect (in words) [3] |
| --- | --- | --- | --- | --- | --- | --- | --- | --- | --- | --- | --- |
| 3.21 |  | COc1cc2nccc(Oc3ccc(NC(=O)c4c5c(cn(-c6ccc(F)cc6)c4=O)CCO5)cc3F)c2cc1OC [Example 40, N-(4-((6,7-Dimethoxyquinolin-4-yl)oxy)-3-fluorophenyl)-5-(4-fluorophenyl)-6-oxo-2,3,5,6-tetrahydrofuro[3,2-c]pyridine-7-carboxamide] | 9.17 | 22.9 | 29.8 | 37.3 | 8.5 | 9.2 |  |  |  |
|  | 5 | COc1cc2c(Oc3ccc(NC(=O)c4c5c(cn(-c6ccc(F)cc6)c4=O)CCO5)cc3F)ccnc2cc1OCCN1CC(F)(F)C1 [Example 124, N-(4-((7-(2-(3,3-difluoroazetidin-1-yl)ethoxy)-6-methoxyquinolin-4-yl)oxy)-3-fluorophenyl)-5-(4-fluorophenyl)-6-oxo-2,3,5,6-tetrahydrofuro[3,2-c]pyridine-7-carboxamide] | 15.7 | 62.1 | 16.3 | 57.3 | 6.2 | 98.7 |  |  |  |
|  | 3 | COc1cc2c(Oc3ccc(NC(=O)c4c5c(cn(-c6ccc(F)cc6)c4=O)CCO5)cc3F)ccnc2cc1OCCN1CC(C#N)C1 [Example 125] | 39.4 | 67.8 | 22.3 | 39.6 | 60.9 | 91.5 | high cell-killing effect | high cell-killing effect | high cell-killing effect |
|  | 2 | COc1cc2c(Oc3ccc(NC(=O)c4c5c(cn(-c6ccc(F)cc6)c4=O)CCO5)cc3F)ccnc2cc1OCCN1CCC(F)(F)C1 [Example 134, N-(4-((7-(2-(3,3-Difluoropyrrolidin-1-yl)ethoxy)-6-methoxyquinolin-4-yl)oxy)-3-fluorophenyl)-5-(4-fluorophenyl)-6-oxo-2,3,5,6-tetrahydrofuro[3,2-c]pyridine-7-carboxamide] | 47 | 82.2 | 35.5 | 47.4 | 76.1 | 82.8 | high cell-killing effect | high cell-killing effect | high cell-killing effect |
|  | 2 | COc1cc2c(Oc3ccc(NC(=O)c4c5c(cn(-c6ccc(F)cc6)c4=O)CCO5)cc3F)ccnc2cc1OCCN1CCC(F)(F)CC1 [Example 145, N-(4-((7-(2-(4,4-Difluoropiperidin-1-yl)ethoxy)-6-methoxyquinolin-4-yl)oxy)-3-fluorophenyl)-5-(4-fluorophenyl)-6-oxo-2,3,5,6-tetrahydrofuro[3,2-c]pyridine-7-carboxamide] | 16.4 | 81.4 | 25.7 | 45.4 | 11 | 87.1 |  |  |  |
|  | 133 | CCOc1ccn(-c2ccc(F)cc2)c(=O)c1C(=O)Nc1ccc(Oc2ccnc(N)c2Cl)c(F)c1 [Positive control, N-(4-(2-amino-3-chloropyridin-4-yloxy)-3-fluorophenyl)-4-ethoxy-1-(4-fluorophenyl)-2-oxo-1,2-dihydropyridine-3-carboxamide, reference compound] | 10.4 | 16.1 | 9.94 | 12.8 | 3.46 | 9.28 |  |  |  |
